PubChem BioAssay AID248 (DTP/NCI, 2004)
Several values for one entry are separate records, joined by “and”; a condition that tells them apart may be missing. Equal entries are not always repeated. Inconclusive results and toxic doses are left out. Rule as the data show it: active = T/C of 150% or more; inactive = T/C below 125%.

System: L1210 leukemia ip in BDF1 mice, survival T/C
Assay: NCI In Vivo Anticancer Drug Screen. Data for tumor model L1210 Leukemia (intraperitoneal) in B6D2F1 (BDF1) mice
Details: endpoint: mean survival time, higher = longer survival
In short: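 Value reflects the ratio of survival in compound-treated mice to survival in vehicle-treated controls, with both groups carrying the same transplanted tumor.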

[1] = dose: 100.0 mg/kg/injection, schedule: Q04DX002 (ip), vehicle: Klucel (hydroxypropylcellulose) (HPC)
[2] = dose: 100.0 mg/kg/injection, schedule: Q01DX009 (ip), vehicle: Klucel (hydroxypropylcellulose) (HPC)
[3] = dose: 100.0 mg/kg/injection, schedule: Q01DX001 (ip), vehicle: saline
[4] = dose: 100.0 mg/kg/injection, schedule: Q01DX009 (ip), vehicle: saline with Tween-80
[5] = dose: 100.0 mg/kg/injection, schedule: Q04DX003 (ip), vehicle: saline with Tween-80
[6] = dose: 200.0 mg/kg/injection, schedule: Q01DX009 (ip), vehicle: saline with Tween-80
[7] = dose: 200.0 mg/kg/injection, schedule: Q04DX003 (ip), vehicle: saline with Tween-80
[8] = dose: 400.0 mg/kg/injection, schedule: Q04DX003 (ip), vehicle: saline with Tween-80
[9] = dose: 200.0 mg/kg/injection, schedule: Q01DX001 (ip), vehicle: saline
[10] = dose: 400.0 mg/kg/injection, schedule: Q01DX001 (ip), vehicle: saline
[11] = dose: 100.0 mg/kg/injection, schedule: Q04DX003 (ip), vehicle: saline
[12] = dose: 200.0 mg/kg/injection, schedule: Q04DX003 (ip), vehicle: saline
[13] = dose: 400.0 mg/kg/injection, schedule: Q04DX003 (ip), vehicle: saline

Measured: T/C

C1CC2CCC[N+]3=C2C(C1)CCC3 (stereo not given)
inactive: dose: 12.0 mg/kg/injection, schedule: Q04DX003 (ip), vehicle: saline 93 % of control | dose: 12.5 mg/kg/injection, schedule: Q01DX009 (ip), vehicle: saline 97 % of control | dose: 25.0 mg/kg/injection, schedule: Q01DX009 (ip), vehicle: saline 101 % of control | dose: 25.0 mg/kg/injection, schedule: Q04DX003 (ip), vehicle: saline 91 % of control | dose: 50.0 mg/kg/injection, schedule: Q01DX009 (ip), vehicle: saline 101 % of control | dose: 50.0 mg/kg/injection, schedule: Q04DX003 (ip), vehicle: saline 101 % of control

CC(=O)OCC(=O)C1(O)CCC2C3CCC4CC(OC(C)=O)CCC4(C)C3CC(=O)C21C (stereo not given)
inactive: dose: 100.0 mg/kg/injection, schedule: Q01DX001 (ip), vehicle: other 106 % of control | dose: 200.0 mg/kg/injection, schedule: Q01DX001 (ip), vehicle: other 101 % of control | dose: 400.0 mg/kg/injection, schedule: Q01DX001 (ip), vehicle: other 102 % of control

CSc1nncc(-c2cnnc(SC)n2)n1
inactive: [1] 108 % of control | dose: 200.0 mg/kg/injection, schedule: Q04DX002 (ip), vehicle: Klucel (hydroxypropylcellulose) (HPC) 94 % of control

Cc1cc(C)c2c(c1)CC2N (stereo not given)
inactive: dose: 25.0 mg/kg/injection, schedule: Q04DX002 (ip), vehicle: Klucel (hydroxypropylcellulose) (HPC) 95 % of control | dose: 50.0 mg/kg/injection, schedule: Q04DX002 (ip), vehicle: Klucel (hydroxypropylcellulose) (HPC) 95 % of control | [1] 95 % of control and 103 % of control

CC(=O)C(N=Nc1ccccc1)C(C)=O
inactive: dose: 25.0 mg/kg/injection, schedule: Q01DX009 (ip), vehicle: Klucel (hydroxypropylcellulose) (HPC) 94 % of control | dose: 50.0 mg/kg/injection, schedule: Q01DX009 (ip), vehicle: Klucel (hydroxypropylcellulose) (HPC) 92 % of control | [2] 97 % of control and 102 % of control

NNc1ccc(S(=O)(=O)C(F)(F)C(F)Cl)cc1 (stereo not given)
inactive: dose: 100.0 mg/kg/injection, schedule: Q01DX009 (ip), vehicle: gum acacia 105 % of control | dose: 100.0 mg/kg/injection, schedule: Q04DX003 (ip), vehicle: gum acacia 101 % of control | dose: 200.0 mg/kg/injection, schedule: Q01DX009 (ip), vehicle: gum acacia 100 % of control | dose: 200.0 mg/kg/injection, schedule: Q04DX003 (ip), vehicle: gum acacia 96 % of control | dose: 400.0 mg/kg/injection, schedule: Q04DX003 (ip), vehicle: gum acacia 96 % of control

C=COC(=O)NC(C(=O)O)C(C)C (stereo not given)
inactive: [3] 96 % of control

CCOC(=O)C(CC)C1=CCCCC1 (stereo not given)
inactive: [4] 97 % of control | [5] 91 % of control | [6] 103 % of control | [7] 99 % of control | [8] 91 % of control

CC(COc1cc(Cl)c(Cl)cc1Cl)OC(=O)COc1ccc(Cl)cc1Cl (stereo not given)
inactive: [3] 88 % of control | [9] 95 % of control | [10] 95 % of control

CCOC(=O)CN(C)C(=O)OCC
inactive: dose: 50.0 mg/kg/injection, schedule: Q01DX001 (ip), vehicle: saline 104 % of control | [3] 101 % of control | [9] 117 % of control | [10] 101 % of control

O=C(Nc1ccc(CCC2=NCCCN2)cc1)c1ccc(C(=O)Nc2ccc(CCC3=NCCCN3)cc2)cc1
inactive: dose: 60.0 mg/kg/injection, schedule: Q01DX Z (ip), vehicle: saline 118 % of control | dose: 120.0 mg/kg/injection, schedule: Q01DX Z (ip), vehicle: saline 110 % of control | dose: 240.0 mg/kg/injection, schedule: Q01DX Z (ip), vehicle: saline 112 % of control

CC(C)[N+](C(C)C)(C(C)C)C(C)C.[I][Pb]([I])([I])[I]
inactive: [5] 95 % of control | [7] 98 % of control | [8] 93 % of control

c1ccc(C2=C(c3ccccc3)C23SCCS3)cc1
inactive: [2] 101 % of control | dose: 100.0 mg/kg/injection, schedule: Q04DX003 (ip), vehicle: Klucel (hydroxypropylcellulose) (HPC) 94 % of control | dose: 200.0 mg/kg/injection, schedule: Q01DX009 (ip), vehicle: Klucel (hydroxypropylcellulose) (HPC) 97 % of control | dose: 200.0 mg/kg/injection, schedule: Q04DX003 (ip), vehicle: Klucel (hydroxypropylcellulose) (HPC) 100 % of control | dose: 400.0 mg/kg/injection, schedule: Q01DX009 (ip), vehicle: Klucel (hydroxypropylcellulose) (HPC) 98 % of control | dose: 400.0 mg/kg/injection, schedule: Q04DX003 (ip), vehicle: Klucel (hydroxypropylcellulose) (HPC) 96 % of control

COc1ccc(C(C)=O)cc1CCC=O
inactive: dose: 100.0 mg/kg/injection, schedule: Q01DX001 (ip), vehicle: carboxymethylcellulose (CMC) 97 % of control | dose: 200.0 mg/kg/injection, schedule: Q01DX001 (ip), vehicle: carboxymethylcellulose (CMC) 97 % of control | dose: 400.0 mg/kg/injection, schedule: Q01DX001 (ip), vehicle: carboxymethylcellulose (CMC) 97 % of control

CC(=O)NCCOc1ccc(N)cc1Cl
inactive: [11] 94 % of control | [12] 92 % of control | [13] 91 % of control

CNC(N)=S
inactive: [11] 99 % of control | [12] 94 % of control | [13] 97 % of control

Nc1cccnn1
inactive: dose: 100.0 mg/kg/injection, schedule: Q01DX009 (ip), vehicle: saline 99 % of control | [11] 109 % of control | dose: 200.0 mg/kg/injection, schedule: Q01DX009 (ip), vehicle: saline 99 % of control | [12] 117 % of control | dose: 400.0 mg/kg/injection, schedule: Q01DX009 (ip), vehicle: saline 103 % of control | [13] 120 % of control

COc1cc(N=Nc2ccccc2)ccc1N
inactive: [3] 95 % of control | dose: 100.0 mg/kg/injection, schedule: Q04DX003 (ip), vehicle: acetone 100 % of control and 111 % of control | [9] 112 % of control | dose: 200.0 mg/kg/injection, schedule: Q04DX003 (ip), vehicle: acetone 95 % of control | [10] 96 % of control | dose: 400.0 mg/kg/injection, schedule: Q04DX003 (ip), vehicle: acetone 96 % of control and 91 % of control

O=C(COc1ccc(Cl)cc1C(=O)O)NCc1ccc(NC(=O)Nc2cccc(S(=O)(=O)F)c2)cc1
inactive: [3] 96 % of control | [9] 93 % of control | [10] 104 % of control

CCOC(=O)NC(=O)NC(=O)OCC
inactive: dose: 75.0 mg/kg/injection, schedule: Q01DX009 (ip), vehicle: saline sonified 92 % of control | [11] 107 % of control | dose: 150.0 mg/kg/injection, schedule: Q01DX009 (ip), vehicle: saline sonified 94 % of control | [12] 119 % of control | dose: 300.0 mg/kg/injection, schedule: Q01DX009 (ip), vehicle: saline sonified 96 % of control | [13] 104 % of control

CCOC(=O)c1ccc(NC(=O)c2ccc(Cl)cc2Cl)cc1
inactive: dose: 50.0 mg/kg/injection, schedule: Q04DX003 (ip), vehicle: saline with Tween-80 102 % of control | [4] 96 % of control and 90 % of control | dose: 100.0 mg/kg/injection, schedule: Q04DX002 (ip), vehicle: saline with Tween-80 93 % of control and 113 % of control | [5] 98 % of control | [6] 97 % of control and 110 % of control | dose: 200.0 mg/kg/injection, schedule: Q04DX002 (ip), vehicle: saline with Tween-80 95 % of control and 91 % of control | [7] 98 % of control | dose: 400.0 mg/kg/injection, schedule: Q04DX002 (ip), vehicle: saline with Tween-80 102 % of control and 92 % of control
